From US20150044346A1, “USE OF OXAZOLINES AS AROMA/FLAVOUR PRECURSORS” (NESTEC S.A., priority 2012, published 2015)

Tests used:
[1] = Release of Strecker aldehyde from 3-oxazoline precursor stirred in water at 37° C. (stable isotope dilution, HS-GC-MS / GC-MS); format: physicochemical; settings: 5 min after addition of water at 37° C.
[2] = Impact of pH value on release of Strecker aldehyde from 3-oxazoline precursor in buffer solution at 37° C.; format: physicochemical
Protocol: (§1) 2-(2-Methylpropyl)-5-methyl-3-oxazoline (dissolved in pentane/diethyl ether; 2 mL) was added to ethanol (0.5 mL). The pentane/diethyl ether was carefully evaporated, and finally made up to 5 mL with ethanol. […] A control experiment was performed with 2-(2-methylpropyl)-5-methyl-3-oxazoline and the respective standard without adding the respective buffer solution. For headspace measurements, the samples were directly subjected to HS-GC-MS. For liquid measurements, the samples were cooled in an ice bath and extracted with diethyl ether (3×15 mL; liquid-liquid extraction). The organic phases were combined, dried over anhydrous sodium sulphate, and the solvent was distilled off (20° C., 500 mbar) to about 4 mL. An aliquot (2 μL) was used for the stable isotope dilution assays ((GC-) GC-MS).
as §1, with “2-Methylphenyl-5-methyl-3-oxazoline” for “2-(2-Methylpropyl)-5-methyl-3-oxazoline”, “2-methylphenyl-5-methyl-3-oxazoline” for “2-(2-methylpropyl)-5-methyl-3-oxazoline”

[3] = Sensory panel, malty aroma of cocoa-malt-based beverage spiked with oxazoline; settings: cocoa-malt-based beverage 7.5 g + 10 mg oxazoline
Protocol: (§2) Cocoa-malt-based beverage (7.5 g) was weighted into a Pyrex bottle. The product was spiked with 2-(2-methylpropyl)-5-methyl-3-oxazoline (10 mg) and the sample was then reconstituted in 100 mL of cold (10° C.) or warm (60° C.) semi-skimmed milk. Samples without addition of oxazoline were prepared analogously and used as references. The impact of the addition of the oxazoline on the intensity of malty aroma (characteristic aroma of 3-methylbutanal) was evaluated by a sensory panel. Comparative profiling procedure was conducted using an 11-point scale ranging from −5 to +5. Assessors were asked to score the sample containing oxazoline against the reference. Reference product containing no added oxazoline was arbitrary positioned on the zero of the scale.

[4] = Sensory panel, malty aroma of coffee mix beverage spiked with oxazoline; settings: coffee mix powder 16 g + 10 mg oxazoline, 130 ml hot (80° C.) water; scale −5 to +5, reference at zero
Protocol: as §2
(§3) Coffee mix powder (16 g) was weighted into a Pyrex bottle. The product was spiked with 2-(2-methylpropyl)-5-methyl-3-oxazoline (10 mg) and the sample was then reconstituted in 130 ml of hot (80° C.) water. Sample without addition of oxazoline was prepared analogously and used as reference. The impact of the addition of the oxazoline on the intensity of malty aroma (characteristic aroma of 3-methylbutanal) was evaluated by a sensory panel as described in example 9. […] To further substantiate the sensory results, the sample was analyzed by SPME-GCxGC-TOFMS.

[5] = SPME-GCxGC-TOFMS of 3-methylbutanal in coffee mix spiked with oxazoline; format: physicochemical
Protocol: as §3
The results (Table 7) indicate that the conversion of oxazoline to Strecker aldehyde is very high and reaches 77% in the analysed coffee mix sample (incubation 60° C./15 min).

[6] = Sensory panel, malty aroma of cereal based pap spiked with oxazoline; settings: cereal powder 12.5 g + 10 mg oxazoline, scale −5 to +5
Protocol: as §2
Cereal powder (12.5 g) was weighted into a plastic dish. The product was spiked with 2-(2-methylpropyl)-5-methyl-3-oxazoline (10 mg) and the sample was then reconstituted in 100 ml of warm (60° C.) water or semi-skimmed milk. Sample without addition of oxazoline was prepared analogously and used as reference. The impact of the addition of the oxazoline on the intensity of malty aroma (characteristic aroma of 3-methylbutanal) was evaluated by a sensory panel as described in example 9.

CC(C)CC1N=CC(C)O1 (stereo not drawn) [2-(2-methylpropyl)-5-methyl-3-oxazoline]
3-methylbutanal released / precursor converted to Strecker aldehyde [1]: about 75%
3-methylbutanal (mol %) generated from precursor ([2]; pH 5, Control without addition of buffer solution): 0.5 mol %
3-methylbutanal (mol %) generated from precursor ([2]; pH 5 buffer, 10 min, 37° C.): 95.1 mol %
3-methylbutanal (mol %) generated from precursor ([2]; pH 5 buffer, 60 min, 37° C.): 98.9 mol %
3-methylbutanal (mol %) generated from precursor ([2]; pH 7, Control without addition of buffer solution): 0.3 mol %
3-methylbutanal (mol %) generated from precursor ([2]; pH 7 buffer, 10 min, 37° C.): 54.8 mol %
3-methylbutanal (mol %) generated from precursor ([2]; pH 7 buffer, 60 min, 37° C.): 97.9 mol %
3-methylbutanal (mol %) generated from precursor ([2]; pH 9, Control without addition of buffer solution): 0.3 mol %
3-methylbutanal (mol %) generated from precursor ([2]; pH 9 buffer, 10 min, 37° C.): 9.0 mol %
3-methylbutanal (mol %) generated from precursor ([2]; pH 9 buffer, 60 min, 37° C.): 35.7 mol %
malty note score against reference ([3]; cold (10° C.) semi-skimmed milk, 11-point scale −5 to +5, reference at zero): 3.6
malty note score against reference ([3]; warm (60° C.) semi-skimmed milk (hot milk), scale −5 to +5, reference at zero): 3.3
malty note score against reference [4]: 3.5
Theoretical release from spike, 3-methylbutanal (ug/vial) [5]: 244 ug/vial
Yield of conversion of oxazoline to Strecker aldehyde ([5]; incubation 60° C./15 min): 77%
3-methylbutanal (ug/vial), sample spiked with oxazoline ([5]; incubation 60° C./15 min, non-spiked reference 28): 215 ug/vial
malty note score against reference ([6]; 100 ml warm (60° C.) semi-skimmed milk): 1.2
malty note score against reference ([6]; 100 ml warm (60° C.) water): 1.7
